For series [1], the system named is HPV16 pseudoviruses. The experiment in a line: microbe, parasite or virus in culture. To be noted: for activity at 3 µM: Human papillomavirus 16, HEK-293T, 48 h. The format is cell-based. The gist of the method:
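Viability was read by CellTiter Glo luminescence on the same wells used for the SEAP infection read-out, after 48 hrs further incubation.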

A short description of series [2]: in vitro. To be noted: human.
Series [3] has as its system HPV16 pseudovirus. As to the kind of experiment: microbe, parasite or virus in culture. The format is cell-based. As to conditions: HaCaT, HPV16 pseudovirus. An excerpt: FIG. 2. Dose dependence inhibition of HPV16 pseudovirus infection in a human keratinocyte cell line (HaCaT). Graphed are the dose-dependent effects of lead compounds shown in Table 2 on the efficiency of infection by HPV16 pseudovirus scored by measuring luciferase reporter activity (squares) as well as their effects on cell viability (circles).
All but one of these compounds (6 is […]) were repurchased and subjected to a tertiary screen performed in the human keratinocyte cell line, HaCaT, and using HPV16 pseudoviruses encoding a third reporter gene, firefly luciferase, transcribed from a different, E1a, promoter.
The infectivity assay was repeated at least twice and each assay was performed in replicate (n≥3).
At 4 hours prior to exposure of cell to pseudoviruses, compounds were added to plates in 1% DMSO final concentration at the indicated amounts. Four hours later, 10 multiplicity of infection (M.O.I.) units of HPV16 pseudovirus carrying the plasmid LucF was added to the cells. 72 hours later, cells were lysed and luciferase assays performed using the Luciferase Assay System (Promega Cat. #E1501). For infection studies with HPV11 and HPV31 pseudoviruses, 200 virus genome equivalents (vge) of virus per cell were used. Cell viability was assessed in parallel plates by Luminescent Cell Viability Assay (Promega Cat. #G7571).

The test system of series [4] is HPV16 virus. As to the kind of experiment: Wild type HPV16 infection in 293T cells, early viral gene expression by real time PCR. In kind it is cell-based. As to conditions: 5 to 10 μM (FIG. 3: 10 μM), 48 hours post infection. As for the experimental part:
FIG. 3. Inhibition of infection by HPV 16 virus. Shown is the relative efficiency of infection by HPV16 virus in 293T cells as scored by quantifying early viral transcription using real time PCR for E2 (dark grey bars), E5 (white bars) and E7 (light grey bars) containing mRNAs at 48 hours post-infection in the absence (DMSO—vehicle only, values set at 100%) or the presence of the indicated compound (10 μM concentration). Data points shown are the average of triplicate sample values. The dotted line indicates the normalized value for no drug (set as 100% infection value).
The 21 selected compounds were also tested for their ability to inhibit infection by bonafide HPV16 in 293T cells by measuring early viral gene expression by real time PCR at 48 hours post infection (FIG. 3) after treatment of the cell with 5 to 10 μM of each compound. Consistently with the data of reporter gene assays, HPV early gene expression was inhibited by Compounds 4, 13, 14, 18 and 20. Given the large differences in IC50 and CD50, and the reproducible capacity to inhibit infection by HPV16 pseudovirus and HPV16 virus in different cell types, Compounds 13 and 14 were selected for further analysis.
After 2 day infection, total RNA was isolated from infected cell lysate and treated with DNase I (Promega) as previously. (Pyeon, D. et al., Establishment of human papillomavirus infection requires cell cycle progression, PLos Pathog. 2009 February; 5(2):e1000318. Epub 2009 Feb. 27). Complementary DNA (cDNA) was synthesized from the normalized total RNA with the SuperScript cDNA synthesis kit (Invitrogen). All oligonucleotide primers (0.5 μM) for PCR are previously published (Pyeon D. et al., Production of infectious human papillomavirus independently of viral replication and epithelial cell differentiation, Proc. Nat'l Acad. Sci. USA, 2005 Jun. 28; 102(26):9311-6, Epub 2005 Jun. 15) or listed in Table 2.
Conventional PCR was performed with Taq DNA polymerase (Promega) and the following cycle: denaturation at 94° C. for 5 min, 42 cycles of 94° C. for 30 sec., 55° C. for 1 min., and 72° C. for 1 min., followed by extension at 72° C. for 7 min. Final products were analyzed by 1% agarose gel electrophoresis and ethidium bromide staining. Quantitative RT-PCR was performed using QuantiTect SYBR green PCR kit (Qiagen) with the following cycle: denaturation at 95° C. for 5 min. and 40 cycles of 95° C. for 30 sec., 55° C. for 30 sec., and 72° C. for 30 sec.
Background: Quantitative PCR measures a nucleic acid by following its amplification.

Series [5] has as its system HPV16 pseudovirus. The experiment in a line: Luciferase assay: HPV16 pseudovirus with renilla luciferase reporter (HPV16wpA-RL). As to conditions: renilla luciferase reporter behind HPV16 promoter.
Protocol: (§1) The protocol for the secondary screen was identical to that of the primary screen with the exception that all volumes were scaled up by a factor of four. RL activity was measured using the Renilla Luciferase Assay System (Promega).
Series [6] is described as follows: in vitro. To be noted: human. This is another data set of the same source.
Series [7] in a line: in vitro. As to conditions: human. This is another data set of the same source.
Protocol: as §1
In series [8] the test system is 293T cells. The experiment in a line: Primary HTS: cell viability (CellTiter Glo) in parallel on the same wells. To be noted: 3 μM HTS standard concentration, 293T cells. Background: Cellular ATP, detected with luciferase, serves as a proxy for viable cell number.
The mark [9] stands for this setting: read-out: Infectivity (SEAP Activity), 3 μM HTS standard concentration, 293T cells, 48 hrs.
[10] abbreviates: read-out: Infectivity vs. viability, 3 μM HTS standard concentration, ratio infectivity/viability.
[11] abbreviates: read-out: Primary HTS SEAP vs Viability, Table 2, first pair of columns (c2).
Setting [12] is: read-out: Primary HTS SEAP vs Viability, Table 2, second pair of columns (c4).
[13] abbreviates: Primary HTS Viability % Average.

Entries after “also recorded” stand apart in the source; their conditions may differ. Like-named read-outs stand apart in the source and are kept apart here.

In general, viability refers to a read-out of living cells in per cent, often relative to untreated cells. On to `NNC(=O)c1cc(COc2cc(Cl)cc(Cl)c2)on1` [Compound 4, 5-[(3,5-dichlorophenoxy)methyl]-1,2-oxazole-3-carbohydrazide], for which the activity at 3 µM in series [1] (setting [9]) was 22.6%; in series [1] (setting [10]) it was 25%; in series [1] (setting [11]), 18.3%; in series [1] (setting [12]) it was 26.9%. Besides, the viability at 52 h, 3 μM in series [2] (setting [13]) is 94.5%; in series [2] (Viability (CelTiter Glow)), 90.4%. Also, in series [3], the “Effect on infection and cytotoxicity, assayed independently” value is on record as “inhibit infection but also to cause cytotoxicity at similar doses”. Besides, the “Inhibition of HPV16 early gene expression (E2, E5, E7 mRNAs)” value in series [4] is “reproducible and significant inhibition; also recorded: inhibited”. Moreover, the “Luciferase assay RL % Average” value in series [5] is 68.26%.

Consider `COc1ccc(C(O)(CNCc2ccccc2)c2ccc(Br)cc2)cc1` (stereo not drawn) [Compound 9, 2-(benzylamino)-1-(4-bromophenyl)-1-(4-methoxyphenyl)ethanol], for which the activity at 3 µM in series [1] (setting [9]) is 29.9%; in series [1] (setting [10]) it was 28.4%; in series [1] (setting [11]) it was 16.5%; in series [1] (setting [12]) it was 43.4%. Also, the viability at 52 h, 3 μM was 101% in series [2] (setting [13]) and 105% in series [2] (Viability (CelTiter Glow)). Besides, the viability at 52 h, 3.3 μM in series [6] amounted to 102%; in series [7], 99%. Also, the “Luciferase assay RL % Average” value in series [5] is on record as 71.67%.

Consider `COC(=O)C1=C(C)NC2=C(C(=O)c3ccccc32)C1c1cc2c(cc1Br)OCO2` (stereo not drawn) [Compound 11, methyl 4-(6-bromo-1,3-benzodioxol-5-yl)-2-methyl-5-oxo-4,5-dihydro-1H-indeno[1,2-b]pyridine-3-carboxylate], for which the activity at 3 µM came out at 19.1% in series [1] (setting [9]), 14.7% in series [1] (setting [10]), 17.7% in series [1] (setting [11]) and 20.4% in series [1] (setting [12]). In addition, the viability at 52 h, 3 μM in series [2] (Viability (CelTiter Glow)) was determined as 130%. The viability at 52 h, 3.3 μM came out at 97.3% in series [6] and 95.7% in series [7]. Further, in series [5], the “Luciferase assay RL % Average” value was 95.56%.

`CCOc1ccc(C(=O)Nc2ccc3oc(-c4ccccc4Br)nc3c2)cc1` [Compound 15, N-[2-(2-bromophenyl)-1,3-benzoxazol-5-yl]-4-ethoxybenzamide]: the activity at 3 µM is 26.4% in series [1] (setting [9]), 28.1% in series [1] (setting [10]), 11.1% in series [1] (setting [11]) and 41.6% in series [1] (setting [12]). The viability at 52 h, 3 μM in series [2] (setting [13]) was 89.5%; in series [2] (Viability (CelTiter Glow)), 93.8%. The viability at 52 h, 3.3 μM in series [6] came out at 95.7%; in series [7], 97.7%. In addition, the “Luciferase assay RL % Average” value in series [5] was determined as 102.39%.

For `FC(F)(F)c1cnc2c(c1)nc(S)n2-c1ccc(Cl)cc1` [Compound 20, 3-(4-chlorophenyl)-6-(trifluoromethyl)-3H-imidazo[4,5-b]pyridine-2-thiol], the activity at 3 µM in series [1] (setting [9]) was found to be 21.4%; in series [1] (setting [10]), 21.6%; in series [1] (setting [11]) it was 20.9%; in series [1] (setting [12]) it was 21.9%. Moreover, the values for the viability at 52 h, 3 μM in series [2] (setting [13]) and in series [2] (Viability (CelTiter Glow)) were 95.8% and 99.1%, respectively. Further, the “Inhibition of HPV16 early gene expression (E2, E5, E7 mRNAs)” value in series [4] is “reproducible and significant inhibition; also recorded: inhibited”. In series [5], the “Luciferase assay RL % Average” value was found to be 109.22%.

For `Cc1ccc(C2Nc3ccccc3NC3=C2C(=O)CC(c2ccccc2)C3)s1` (stereo not drawn) [Compound 22, 11-(5-methyl-2-thienyl)-3-phenyl-2,3,4,5,10,11-hexahydro-1H-dibenzo[b,e][1,4]diazepin-1-one], the activity at 3 µM in series [1] (setting [9]) turned out to be 44.1%; in series [1] (setting [10]) it was 41.9%; in series [1] (setting [11]) it was 45.2%; in series [1] (setting [12]), 43%. The viability at 52 h, 3 μM in series [2] (Viability (CelTiter Glow)) came out at 105%. Further, the viability at 52 h, 3.3 μM in series [6] came to 93.7%; in series [7] it was 97.3%. The “Luciferase assay RL % Average” value in series [5] worked out at 44.37%.

Turning to “-[(3-fluorophenypamino]-3-methylpyrido[1,2-a]benzimidazole-4-carbonitrile [Compound 5873417]”, the “Infectivity (SEAP Activity)” value in series [1] (3 μM HTS standard concentration, 293T cells, 48 hrs) is 46.16%. In addition, the Infectivity vs. viability in series [1] (3 μM HTS standard concentration, ratio infectivity/viability) was determined as 45.53%. Moreover, the “Viability (CelTiter Glow)” value in series [8] turned out to be 101.39%.

Source of the values: patent US9949980B2, “Drugs to prevent HPV infection” (Wisconsin Alumni Research Foundation, priority 2008, dated 2018).
